Test [1] concerns H22. The experiment in a line: Antimetastatic activity against mouse H22 cells transplanted in mouse lung assessed as inhibition of tumor growth on the surface of lungs at 50 mg/kg/day, po for 6 days a week for 2 weeks. In kind it is functional. Particulars: read-out: TGI.
The nature of test [2]: Antimetastatic activity against human ES2 cells xenografted in mouse lung assessed as inhibition of tumor growth at 50 mg/kg/day, po for 6 days a week for 2 weeks. In kind it is functional. To be noted: ES-2, read-out: TGI. In general terms: Xenograft models place foreign cells or tissue in a host animal.
The target in test [3] is Aminopeptidase N (Sus scrofa) (UniProt P15145). The experiment in a line: Inhibition of aminopeptidase N.
Aminopeptidase N (Sus scrofa), sequence (P15145 whole entry, looked up): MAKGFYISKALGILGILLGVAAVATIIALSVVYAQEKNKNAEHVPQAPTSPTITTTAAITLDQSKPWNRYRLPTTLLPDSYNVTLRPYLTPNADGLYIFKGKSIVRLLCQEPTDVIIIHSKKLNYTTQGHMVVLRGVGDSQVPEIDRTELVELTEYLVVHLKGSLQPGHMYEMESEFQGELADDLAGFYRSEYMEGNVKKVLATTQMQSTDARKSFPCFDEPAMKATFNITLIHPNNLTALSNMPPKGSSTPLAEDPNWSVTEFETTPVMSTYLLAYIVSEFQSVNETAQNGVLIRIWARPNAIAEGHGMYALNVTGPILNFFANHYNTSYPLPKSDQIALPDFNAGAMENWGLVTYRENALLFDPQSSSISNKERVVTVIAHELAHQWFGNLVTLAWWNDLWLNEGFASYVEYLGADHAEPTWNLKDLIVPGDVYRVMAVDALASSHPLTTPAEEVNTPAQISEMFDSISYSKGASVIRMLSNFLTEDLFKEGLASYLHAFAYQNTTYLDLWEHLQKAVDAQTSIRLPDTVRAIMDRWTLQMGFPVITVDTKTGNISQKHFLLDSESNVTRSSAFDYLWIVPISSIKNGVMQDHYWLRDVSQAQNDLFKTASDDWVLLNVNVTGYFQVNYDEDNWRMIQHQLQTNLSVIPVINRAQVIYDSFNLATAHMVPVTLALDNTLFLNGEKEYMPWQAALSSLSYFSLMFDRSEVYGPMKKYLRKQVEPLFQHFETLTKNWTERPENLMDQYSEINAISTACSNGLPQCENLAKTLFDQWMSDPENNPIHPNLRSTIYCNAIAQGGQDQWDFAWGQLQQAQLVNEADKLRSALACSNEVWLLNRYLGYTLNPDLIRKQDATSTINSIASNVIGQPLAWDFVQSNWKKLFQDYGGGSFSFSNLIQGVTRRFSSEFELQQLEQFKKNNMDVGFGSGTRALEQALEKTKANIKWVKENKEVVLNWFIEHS
In test [4] the test system is HL-60. The test can be described thus: Antiproliferative activity against human HL60 cells after 48 hrs by MTT assay. Particulars: HL-60, 48 h.
For test [5], the system named is K562. The experiment in a line: Antiproliferative activity against human K562 cells at 400 ug/ml after 48 hrs by MTT assay. Type of test: functional, cell-based. (In general: Tetrazolium assays rely on reduction of a dye to a coloured formazan, in cell work by metabolically active cells.)
Test [6] in a line: Antimetastatic activity against human ES2 cells xenografted in mouse lung assessed as inhibition of tumor growth at 10 mg/kg/day, po for 6 days a week for 2 weeks. In kind it is functional. To be noted: ES-2, read-out: TGI.

Activity calls are given as the source filed them. The rule behind the calls is not given here.

As to `CC(C)C[C@H](NC(=O)[C@@H](O)[C@H](N)Cc1ccccc1)C(=O)O` [UBENIMEX], the inhibition in vivo at 50 mg/kg/day in test [1] worked out at 45.4%; in test [2] it was 36.2%.
One may read the IC50 as the concentration that gives 50% inhibition. Low readings indicate inhibition by little substance, high ones a need for much substance. `COc1cc(C(=O)N[C@H]2CCC(=O)N(CC(=O)NO)C2=O)cc(OC)c1OC`: the IC50 in test [3] was found to be 3.1 µM.
On to `N[C@@H](Cc1ccccc1)C(=O)N[C@H]1CCC(=O)N(CC(=O)NO)C1=O`, for which, in test [4], the IC50 worked out at 105 µM. The outcome in test [5] was inactive. For the same compound, the inhibition in vivo at 50 mg/kg/day in test [1] stood at 72.9%. In test [6], the inhibition in vivo at 10 mg/kg/day was found to be 30.9%.
In test [4], `N[C@@H](Cc1ccc(O)cc1)C(=O)N[C@H]1CCC(=O)N(CC(=O)NO)C1=O` yielded an IC50 of 147 µM. In addition, the inhibition in vivo at 50 mg/kg/day in test [1] was found to be 62.7%.

(Values after ChEMBL document CHEMBL1157052, “Novel cyclic-imide peptidomimetics as aminopeptidase N inhibitors. Structure-based design, chemistry and activity evaluation. II” (Eur J Med Chem, 2010).)
